Measured values: patent publication US9669003B2, “Use of flavone and flavanone derivatives in preparation of sedative and hypnotic drugs” (priority 2012, dated 2017)
Marks after values point to notes of the source that are not given here.

Tested on: Kunming mice
Assay: Influence on autonomic activity of normal mice (ZIL-2 mice autonomic activity meter, counts within 10 min)
Assay type: in vivo
Details: intragastric, 25 mg/kg, 1 h after administration, x ± s, n = 10
Outline: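 Activity counts during a 10-min window were taken at 1, 2 and 24 h after dosing in groups of 10 mixed-sex Kunming mice. Compounds were given in 0.5% CMC-Na at 25, 50 or 100 mg/kg. Statistics used Levene's homogeneity test, ANOVA and Dunnett's multiple comparisons.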

Structure (SMILES) | Times of activities in 1 h after drug administration/10 min
C=Cc1c(C#N)cc(-c2cc(=O)c3c(C=CC)cc(Cc4ccccc4)cc3o2)cc1[N+](=O)[O-] [Example 20] | 320.3 ± 49.7 /10 min
CC=Cc1cc(C(=O)O)c2c(=O)cc(-c3ccc(C#N)c(C(=O)O)c3)oc2c1 [Example 40] | 291.4 ± 51.5 /10 min

Same assay, conditions: intragastric, 25 mg/kg, 1 h after administration, x ± s, n = 10, 25 mg/kg

Structure (SMILES) | Times of activities in 1 h after drug administration/10 min
COc1ccc(C2CC(=O)c3c(O)c(OC)c(OC)c(OC)c3O2)cc1OC (stereo not drawn) [Example 64, 5-hydroxyl-6,7,8,3′,4′-penta methoxyl-flavanone] | 323.9 ± 45.4 /10 min

Same assay, conditions: intragastric, 25 mg/kg, 2 h after administration, x ± s, n = 10

Structure (SMILES) | Times of activities in 2 h after drug administration/10 min
C=Cc1c(C#N)cc(-c2cc(=O)c3c(C=CC)cc(Cc4ccccc4)cc3o2)cc1[N+](=O)[O-] [Example 20] | 293.6 ± 45.1 /10 min
CC=Cc1cc(C(=O)O)c2c(=O)cc(-c3ccc(C#N)c(C(=O)O)c3)oc2c1 [Example 40] | 276.0 ± 48.7 /10 min

Same assay, conditions: intragastric, 25 mg/kg, 2 h after administration, x ± s, n = 10, 25 mg/kg

Structure (SMILES) | Times of activities in 2 h after drug administration/10 min
COc1ccc(C2CC(=O)c3c(O)c(OC)c(OC)c(OC)c3O2)cc1OC (stereo not drawn) [Example 64, 5-hydroxyl-6,7,8,3′,4′-penta methoxyl-flavanone] | 310.9 ± 55.9 /10 min

Same assay, conditions: intragastric, 25 mg/kg, 24 h after administration, x ± s, n = 10

Structure (SMILES) | Times of activities in 24 h after drug administration/10 min
C=Cc1c(C#N)cc(-c2cc(=O)c3c(C=CC)cc(Cc4ccccc4)cc3o2)cc1[N+](=O)[O-] [Example 20] | 317.4 ± 79.6 /10 min
CC=Cc1cc(C(=O)O)c2c(=O)cc(-c3ccc(C#N)c(C(=O)O)c3)oc2c1 [Example 40] | 311.2 ± 79.9 /10 min

Same assay, conditions: intragastric, 25 mg/kg, 24 h after administration, x ± s, n = 10, 25 mg/kg

Structure (SMILES) | Times of activities in 24 h after drug administration/10 min
COc1ccc(C2CC(=O)c3c(O)c(OC)c(OC)c(OC)c3O2)cc1OC (stereo not drawn) [Example 64, 5-hydroxyl-6,7,8,3′,4′-penta methoxyl-flavanone] | 331.3 ± 94.5 /10 min

Same assay, conditions: intragastric, 50 mg/kg, 1 h after administration, x ± s, n = 10

Structure (SMILES) | Times of activities in 1 h after drug administration/10 min
C=Cc1c(C#N)cc(-c2cc(=O)c3c(C=CC)cc(Cc4ccccc4)cc3o2)cc1[N+](=O)[O-] [Example 20] | 283.7 ± 51.3 /10 min
CC=Cc1cc(C(=O)O)c2c(=O)cc(-c3ccc(C#N)c(C(=O)O)c3)oc2c1 [Example 40] | 245.7 ± 44.5 /10 min

Same assay, conditions: intragastric, 50 mg/kg, 1 h after administration, x ± s, n = 10, 50 mg/kg

Structure (SMILES) | Times of activities in 1 h after drug administration/10 min
COc1ccc(C2CC(=O)c3c(O)c(OC)c(OC)c(OC)c3O2)cc1OC (stereo not drawn) [Example 64, 5-hydroxyl-6,7,8,3′,4′-penta methoxyl-flavanone] | 283.8 ± 60.4 /10 min

Same assay, conditions: intragastric, 50 mg/kg, 2 h after administration, x ± s, n = 10

Structure (SMILES) | Times of activities in 2 h after drug administration/10 min
C=Cc1c(C#N)cc(-c2cc(=O)c3c(C=CC)cc(Cc4ccccc4)cc3o2)cc1[N+](=O)[O-] [Example 20] | 278.6 ± 47.5 /10 min
CC=Cc1cc(C(=O)O)c2c(=O)cc(-c3ccc(C#N)c(C(=O)O)c3)oc2c1 [Example 40] | 223.6 ± 43.8 /10 min

Same assay, conditions: intragastric, 50 mg/kg, 2 h after administration, x ± s, n = 10, 50 mg/kg

Structure (SMILES) | Times of activities in 2 h after drug administration/10 min
COc1ccc(C2CC(=O)c3c(O)c(OC)c(OC)c(OC)c3O2)cc1OC (stereo not drawn) [Example 64, 5-hydroxyl-6,7,8,3′,4′-penta methoxyl-flavanone] | 269.7 ± 44.6 /10 min

Same assay, conditions: intragastric, 50 mg/kg, 24 h after administration, x ± s, n = 10

Structure (SMILES) | Times of activities in 24 h after drug administration/10 min
C=Cc1c(C#N)cc(-c2cc(=O)c3c(C=CC)cc(Cc4ccccc4)cc3o2)cc1[N+](=O)[O-] [Example 20] | 305.2 ± 75.4 /10 min
CC=Cc1cc(C(=O)O)c2c(=O)cc(-c3ccc(C#N)c(C(=O)O)c3)oc2c1 [Example 40] | 288.9 ± 68.9 /10 min

Same assay, conditions: intragastric, 50 mg/kg, 24 h after administration, x ± s, n = 10, 50 mg/kg

Structure (SMILES) | Times of activities in 24 h after drug administration/10 min
COc1ccc(C2CC(=O)c3c(O)c(OC)c(OC)c(OC)c3O2)cc1OC (stereo not drawn) [Example 64, 5-hydroxyl-6,7,8,3′,4′-penta methoxyl-flavanone] | 313.6 ± 93.1 /10 min

Same assay, conditions: intragastric, 100 mg/kg, 1 h after administration, x ± s, n = 10

Structure (SMILES) | Times of activities in 1 h after drug administration/10 min
C=Cc1c(C#N)cc(-c2cc(=O)c3c(C=CC)cc(Cc4ccccc4)cc3o2)cc1[N+](=O)[O-] [Example 20] | 267.2 ± 55.3 /10 min
CC=Cc1cc(C(=O)O)c2c(=O)cc(-c3ccc(C#N)c(C(=O)O)c3)oc2c1 [Example 40] | 145.7 ± 39.8 /10 min

Same assay, conditions: intragastric, 100 mg/kg, 1 h after administration, x ± s, n = 10, 100 mg/kg

Structure (SMILES) | Times of activities in 1 h after drug administration/10 min
COc1ccc(C2CC(=O)c3c(O)c(OC)c(OC)c(OC)c3O2)cc1OC (stereo not drawn) [Example 64, 5-hydroxyl-6,7,8,3′,4′-penta methoxyl-flavanone] | 239.4 ± 35.6 /10 min

Same assay, conditions: intragastric, 100 mg/kg, 2 h after administration, x ± s, n = 10

Structure (SMILES) | Times of activities in 2 h after drug administration/10 min
C=Cc1c(C#N)cc(-c2cc(=O)c3c(C=CC)cc(Cc4ccccc4)cc3o2)cc1[N+](=O)[O-] [Example 20] | 250.3 ± 47.1 /10 min
CC=Cc1cc(C(=O)O)c2c(=O)cc(-c3ccc(C#N)c(C(=O)O)c3)oc2c1 [Example 40] | 169.8 ± 40.5 /10 min

Same assay, conditions: intragastric, 100 mg/kg, 2 h after administration, x ± s, n = 10, 100 mg/kg

Structure (SMILES) | Times of activities in 2 h after drug administration/10 min
COc1ccc(C2CC(=O)c3c(O)c(OC)c(OC)c(OC)c3O2)cc1OC (stereo not drawn) [Example 64, 5-hydroxyl-6,7,8,3′,4′-penta methoxyl-flavanone] | 248.2 ± 44.7 /10 min

Same assay, conditions: intragastric, 100 mg/kg, 24 h after administration, x ± s, n = 10

Structure (SMILES) | Times of activities in 24 h after drug administration/10 min
C=Cc1c(C#N)cc(-c2cc(=O)c3c(C=CC)cc(Cc4ccccc4)cc3o2)cc1[N+](=O)[O-] [Example 20] | 305.7 ± 79.7 /10 min
CC=Cc1cc(C(=O)O)c2c(=O)cc(-c3ccc(C#N)c(C(=O)O)c3)oc2c1 [Example 40] | 301.5 ± 91.8 /10 min

Same assay, conditions: intragastric, 100 mg/kg, 24 h after administration, x ± s, n = 10, 100 mg/kg

Structure (SMILES) | Times of activities in 24 h after drug administration/10 min
COc1ccc(C2CC(=O)c3c(O)c(OC)c(OC)c(OC)c3O2)cc1OC (stereo not drawn) [Example 64, 5-hydroxyl-6,7,8,3′,4′-penta methoxyl-flavanone] | 300.1 ± 81.3 /10 min

Tested on: Kunming mice
Assay: Influence on hypnosis effect with pentobarbital sodium doses below the threshold (25 mg/kg i.p.)
Assay type: in vivo
Details: test drug 25 mg/kg intragastric single dose, pentobarbital sodium 25 mg/kg i.p. 60 min later, sleep observed in 30 min, n = 10
Outline: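 Percentage of mice sleeping within 30 min after subthreshold pentobarbital sodium (25 mg/kg i.p.), defined by loss of righting reflex over 1 min, analysed by χ2. Compound in 0.5% CMC-Na given intragastrically at 25/50/100 mg/kg 60 min before; groups of 10 Kunming mice, both sexes.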

Structure (SMILES) | Number of sleeping animals | rate of sleeping (%)
COc1ccc(C2CC(=O)c3c(O)c(OC)c(OC)c(OC)c3O2)cc1OC (stereo not drawn) [Example 64, 5-hydroxyl-6,7,8,3′,4′-penta methoxyl-flavanone] | 4 | 40* %
C=Cc1c(C#N)cc(-c2cc(=O)c3c(C=CC)cc(Cc4ccccc4)cc3o2)cc1[N+](=O)[O-] [Example 20] | 4 | 40* %
CC=Cc1cc(C(=O)O)c2c(=O)cc(-c3ccc(C#N)c(C(=O)O)c3)oc2c1 [Example 40] | 4 | 40* %

Same assay, conditions: test drug 50 mg/kg intragastric single dose, pentobarbital sodium 25 mg/kg i.p. 60 min later, sleep observed in 30 min, n = 10

Structure (SMILES) | Number of sleeping animals | rate of sleeping (%)
COc1ccc(C2CC(=O)c3c(O)c(OC)c(OC)c(OC)c3O2)cc1OC (stereo not drawn) [Example 64, 5-hydroxyl-6,7,8,3′,4′-penta methoxyl-flavanone] | 7 | 70** %
C=Cc1c(C#N)cc(-c2cc(=O)c3c(C=CC)cc(Cc4ccccc4)cc3o2)cc1[N+](=O)[O-] [Example 20] | 6 | 60** %
CC=Cc1cc(C(=O)O)c2c(=O)cc(-c3ccc(C#N)c(C(=O)O)c3)oc2c1 [Example 40] | 6 | 60** %

Same assay, conditions: test drug 100 mg/kg intragastric single dose, pentobarbital sodium 25 mg/kg i.p. 60 min later, sleep observed in 30 min, n = 10

Structure (SMILES) | Number of sleeping animals | rate of sleeping (%)
COc1ccc(C2CC(=O)c3c(O)c(OC)c(OC)c(OC)c3O2)cc1OC (stereo not drawn) [Example 64, 5-hydroxyl-6,7,8,3′,4′-penta methoxyl-flavanone] | 8 | 80*** %
C=Cc1c(C#N)cc(-c2cc(=O)c3c(C=CC)cc(Cc4ccccc4)cc3o2)cc1[N+](=O)[O-] [Example 20] | 6 | 60** %
CC=Cc1cc(C(=O)O)c2c(=O)cc(-c3ccc(C#N)c(C(=O)O)c3)oc2c1 [Example 40] | 7 | 70** %

Tested on: Kunming mice
Assay: Influence on hypnosis effect with pentobarbital sodium doses at the threshold (50 mg/kg i.p.)
Assay type: in vivo
Details: 25 mg/kg intragastric single dose, pentobarbital sodium 50 mg/kg i.p. 60 min later, x ± s, n = 10
Outline: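 Pentobarbital sodium (0.3%, 50 mg/kg i.p.) injected 60 min after a single intragastric dose (25, 50, 100 mg/kg, 0.5% CMC-Na vehicle) in Kunming mice, 10 per group, sexes balanced. Onset and length of sleep (righting reflex lost over 1 min) analysed by ANOVA; sleeping incidence by χ2 test.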

Structure (SMILES) | duration of sleep [min] | time to sleep [min]
COc1ccc(C2CC(=O)c3c(O)c(OC)c(OC)c(OC)c3O2)cc1OC (stereo not drawn) [Example 64, 5-hydroxyl-6,7,8,3′,4′-penta methoxyl-flavanone] | 24.78 ± 24.51 | 5.87 ± 2.32
C=Cc1c(C#N)cc(-c2cc(=O)c3c(C=CC)cc(Cc4ccccc4)cc3o2)cc1[N+](=O)[O-] [Example 20] | 38.67 ± 21.87 | 4.33 ± 1.58
CC=Cc1cc(C(=O)O)c2c(=O)cc(-c3ccc(C#N)c(C(=O)O)c3)oc2c1 [Example 40] | 21.71 ± 26.77 | 5.32 ± 2.47

Same assay, conditions: 50 mg/kg intragastric single dose, pentobarbital sodium 50 mg/kg i.p. 60 min later, x ± s, n = 10

Structure (SMILES) | duration of sleep [min] | time to sleep [min]
COc1ccc(C2CC(=O)c3c(O)c(OC)c(OC)c(OC)c3O2)cc1OC (stereo not drawn) [Example 64, 5-hydroxyl-6,7,8,3′,4′-penta methoxyl-flavanone] | 48.23 ± 24.48 | 4.32 ± 1.29
C=Cc1c(C#N)cc(-c2cc(=O)c3c(C=CC)cc(Cc4ccccc4)cc3o2)cc1[N+](=O)[O-] [Example 20] | 66.34 ± 22.15 | 3.36 ± 1.20
CC=Cc1cc(C(=O)O)c2c(=O)cc(-c3ccc(C#N)c(C(=O)O)c3)oc2c1 [Example 40] | 27.68 ± 27.86 | 5.13 ± 2.64

Same assay, conditions: 100 mg/kg intragastric single dose, pentobarbital sodium 50 mg/kg i.p. 60 min later, x ± s, n = 10

Structure (SMILES) | duration of sleep [min] | time to sleep [min]
COc1ccc(C2CC(=O)c3c(O)c(OC)c(OC)c(OC)c3O2)cc1OC (stereo not drawn) [Example 64, 5-hydroxyl-6,7,8,3′,4′-penta methoxyl-flavanone] | 53.43 ± 21.81 | 3.87 ± 2.43
C=Cc1c(C#N)cc(-c2cc(=O)c3c(C=CC)cc(Cc4ccccc4)cc3o2)cc1[N+](=O)[O-] [Example 20] | 68.09 ± 29.56 | 3.18 ± 1.10
CC=Cc1cc(C(=O)O)c2c(=O)cc(-c3ccc(C#N)c(C(=O)O)c3)oc2c1 [Example 40] | 61.35 ± 45.27 | 4.92 ± 1.26
